Data as given in patent publication US7572786B2, “Substituted 1-piperidin-3-yl-4-piperidin-4-yl-piperazine derivatives and their use as neurokinin antagonists” (Janssen Pharmaceutica, N.V., priority 2002, dated 2009).

Key:
Assay type in all cases: cell-based
NK1 = NK1 (Homo sapiens, UniProt P25103); assay: Signal transduction (ST), intracellular Ca++ (FLIPR), NK1 antagonism; settings: for IC50: read-out: pIC50 NK1 (converted)
Method: (§1) This test evaluates in vitro functional NK1 antagonistic activity. For the measurements of intracellular Ca^++ concentrations the cells were grown on 96-well (black wall/transparent bottom) plates from Costar for 2 days until they reached confluence. The cells were loaded with 2 μM Fluo3 in DMEM containing 0.1% BSA and 2.5 mM probenecid for 1 h at 37° C. […] The cells were preincubated with a concentration range of antagonists for 20 min at RT and Ca^++-signals after addition of the agonists were measured in a Fluorescence Image Plate Reader (FLIPR from Molecular Devices, Crawley, England). The peak of the Ca^++-transient was considered as the relevant signal and the mean values of corresponding wells were analysed as described below.
(§2) The sigmoidal dose response curves were analysed by computerised curve-fitting, using the GraphPad Program. […] For antagonist responses the IC50-value was calculated using non-linear regression.

NK2 = target: T1, NK2 (Homo sapiens, UniProt P21452); assay: Signal transduction (ST), intracellular Ca++ (FLIPR), NK2; settings: for IC50: read-out: pIC50 NK2 (converted)
T1 sequence (P21452 1-398): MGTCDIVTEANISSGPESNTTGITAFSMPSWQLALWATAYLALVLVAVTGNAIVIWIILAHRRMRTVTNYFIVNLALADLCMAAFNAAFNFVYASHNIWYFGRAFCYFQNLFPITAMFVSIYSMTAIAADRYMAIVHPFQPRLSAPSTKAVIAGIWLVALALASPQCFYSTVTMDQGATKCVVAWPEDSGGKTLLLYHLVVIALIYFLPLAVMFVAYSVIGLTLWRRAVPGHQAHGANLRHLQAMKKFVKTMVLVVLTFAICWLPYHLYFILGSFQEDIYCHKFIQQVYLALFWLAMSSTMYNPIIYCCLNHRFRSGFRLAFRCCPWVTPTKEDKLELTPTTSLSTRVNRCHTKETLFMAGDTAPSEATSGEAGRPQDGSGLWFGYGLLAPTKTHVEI
Method: [The source words this procedure for another target and reports this target under the same test.] as §1, §2

NK3 = target: T2, NK3 (Homo sapiens, UniProt P29371); assay: Signal transduction (ST), intracellular Ca++ (FLIPR), NK3; settings: for IC50: read-out: pIC50 NK3 (converted)
T2 sequence (P29371 1-465): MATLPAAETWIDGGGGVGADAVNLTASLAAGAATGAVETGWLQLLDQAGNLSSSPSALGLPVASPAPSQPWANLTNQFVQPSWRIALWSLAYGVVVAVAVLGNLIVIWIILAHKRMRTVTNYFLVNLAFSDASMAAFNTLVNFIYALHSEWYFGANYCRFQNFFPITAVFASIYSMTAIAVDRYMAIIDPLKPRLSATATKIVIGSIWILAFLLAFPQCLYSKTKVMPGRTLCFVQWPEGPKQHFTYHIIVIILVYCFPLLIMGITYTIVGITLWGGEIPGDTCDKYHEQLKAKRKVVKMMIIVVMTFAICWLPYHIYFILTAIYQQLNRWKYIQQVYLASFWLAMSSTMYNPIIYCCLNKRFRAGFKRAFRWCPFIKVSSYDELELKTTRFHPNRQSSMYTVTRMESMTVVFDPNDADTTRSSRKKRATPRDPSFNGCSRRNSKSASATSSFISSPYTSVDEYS
Method: [The source words this procedure for another target and reports this target under the same test.] as §1, §2

NK1, sequence (P25103 whole entry): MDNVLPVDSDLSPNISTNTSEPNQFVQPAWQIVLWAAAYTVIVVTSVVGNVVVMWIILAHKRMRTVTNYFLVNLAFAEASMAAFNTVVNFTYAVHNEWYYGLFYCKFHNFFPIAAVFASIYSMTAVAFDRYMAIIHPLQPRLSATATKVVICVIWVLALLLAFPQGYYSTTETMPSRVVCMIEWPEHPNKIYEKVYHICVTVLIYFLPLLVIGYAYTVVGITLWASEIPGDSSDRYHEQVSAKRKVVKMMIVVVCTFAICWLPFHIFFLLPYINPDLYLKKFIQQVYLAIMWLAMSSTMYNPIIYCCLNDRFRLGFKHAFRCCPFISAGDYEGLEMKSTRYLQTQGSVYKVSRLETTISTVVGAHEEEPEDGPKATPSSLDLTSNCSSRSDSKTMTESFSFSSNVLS

| SMILES | IC50 (NK1) | IC50 (NK2) | IC50 (NK3) | pIC50 NK1 (NK1) | pIC50 NK2 (NK2) | pIC50 NK3 (NK3) |
| --- | --- | --- | --- | --- | --- | --- |
| O=C(c1cc(C(F)(F)F)cc(C(F)(F)F)c1)N1CC[C@H](N2CCN(C3CCCN(C(=O)C4(O)CC4)C3)CC2)C[C@H]1Cc1ccccc1 (stereo partly drawn) [Compound 61] | 7.94 nM | 3160 nM | 6310 nM | – | – | – |
| N#Cc1ccc(C(=O)N2CCCC(N3CCN([C@H]4CCN(C(=O)c5cc(C(F)(F)F)cc(C(F)(F)F)c5)[C@H](Cc5ccccc5)C4)CC3)C2)cc1 (stereo partly drawn) [Compound 62] | 10 nM | 3980 nM | 3160 nM | – | – | – |
| Cn1cnc(C(=O)N2CCCC(N3CCN([C@H]4CCN(C(=O)c5cc(C(F)(F)F)cc(C(F)(F)F)c5)[C@H](Cc5ccccc5)C4)CC3)C2)c1 (stereo partly drawn) [Compound 63] | 5.01 nM | 3160 nM | 6310 nM | – | – | – |
| O=C(c1c(Cl)cccc1Cl)N1CCCC(N2CCN([C@H]3CCN(C(=O)c4cc(C(F)(F)F)cc(C(F)(F)F)c4)[C@H](Cc4ccccc4)C3)CC2)C1 (stereo partly drawn) [Compound 64] | 12.6 nM | 6310 nM | 794 nM | – | – | – |
| O=C(Nc1ccccc1F)N1CCCC(N2CCN([C@H]3CCN(C(=O)c4cc(C(F)(F)F)cc(C(F)(F)F)c4)[C@H](Cc4ccccc4)C3)CC2)C1 (stereo partly drawn) [Compound 65] | 10 nM | 1580 nM | 6310 nM | – | – | – |
| CC(C)NC(=O)N1CCCC(N2CCN(C3CCN(C(=O)c4cc(C(F)(F)F)cc(C(F)(F)F)c4)C(Cc4ccccc4)C3)CC2)C1 (stereo not drawn) [Compound 66] | 5.01 nM | 3160 nM | 3160 nM | – | – | – |
| O=C(c1ccc(O)cc1)N1CCCC(N2CCN(C3CCN(C(=O)c4cc(C(F)(F)F)cc(C(F)(F)F)c4)C(Cc4ccccc4)C3)CC2)C1 (stereo not drawn) [Compound 67] | 6.31 nM | 5010 nM | 1580 nM | – | – | – |
| COc1ccccc1S(=O)(=O)N1CCCC(N2CCN([C@H]3CCN(C(=O)c4cc(C(F)(F)F)cc(C(F)(F)F)c4)[C@H](Cc4ccccc4)C3)CC2)C1 (stereo partly drawn) [Compound 68] | – | – | – | 8.0 | 5.8 | 5.8 |
| COc1cccc(S(=O)(=O)N2CCCC(N3CCN([C@H]4CCN(C(=O)c5cc(C(F)(F)F)cc(C(F)(F)F)c5)[C@H](Cc5ccccc5)C4)CC3)C2)c1 (stereo partly drawn) [Compound 69] | – | – | – | 7.8 | 5.6 | 6.2 |
| O=C(c1cccc(O)c1)N1CCCC(N2CCN([C@H]3CCN(C(=O)c4cc(C(F)(F)F)cc(C(F)(F)F)c4)[C@H](Cc4ccccc4)C3)CC2)C1 (stereo partly drawn) [Compound 70] | 7.94 nM | 3980 nM | 1260 nM | – | – | – |
| COc1ccc(S(=O)(=O)N2CCCC(N3CCN([C@H]4CCN(C(=O)c5cc(C(F)(F)F)cc(C(F)(F)F)c5)[C@H](Cc5ccccc5)C4)CC3)C2)cc1 (stereo partly drawn) [Compound 72] | 20 nM | 2000 nM | 1260 nM | – | – | – |
| O=C(Nc1ccc(Cl)cc1)N1CCCC(N2CCN([C@H]3CCN(C(=O)c4cc(C(F)(F)F)cc(C(F)(F)F)c4)[C@H](Cc4ccccc4)C3)CC2)C1 (stereo partly drawn) [Compound 74] | – | – | – | 8.0 | 5.4 | 5.5 |

The next lines start with results.

| IC50 (NK1) | IC50 (NK2) | IC50 (NK3) | SMILES | pIC50 NK1 (NK1) | pIC50 NK2 (NK2) | pIC50 NK3 (NK3) |
| --- | --- | --- | --- | --- | --- | --- |
| 7.94 nM | 794 nM | 251 nM | O=C(c1cc(C(F)(F)F)cc(C(F)(F)F)c1)N1CC[C@H](N2CCN(C3CCCN(S(=O)(=O)c4ccc(CO)cc4)C3)CC2)C[C@H]1Cc1ccccc1 (stereo partly drawn) [Compound 73] | – | – | – |
| 20 nM | 2000 nM | 1580 nM | O=C(c1cc(C(F)(F)F)cc(C(F)(F)F)c1)N1CC[C@H](N2CCN(C3CCCN(C(CO)c4ccsc4)C3)CC2)C[C@H]1Cc1ccccc1 (stereo partly drawn) [Compound 76] | – | – | – |
| 12.6 nM | 2000 nM | 3160 nM | O=C(c1cc(C(F)(F)F)cc(C(F)(F)F)c1)N1CCC(N2CCN(C3CCCN(C(CO)c4cccs4)C3)CC2)CC1Cc1ccccc1 (stereo not drawn) [Compound 77] | – | – | – |
| 3.98 nM | 794 nM | 316 nM | O=C(c1cc(C(F)(F)F)cc(C(F)(F)F)c1)N1CCC(N2CCN(C3CCCN(S(=O)(=O)c4ccc(O)cc4)C3)CC2)CC1Cc1ccccc1 (stereo not drawn) [Compound 78] | – | – | – |
| 12.6 nM | 1580 nM | 1000 nM | O=C(c1cc(C(F)(F)F)cc(C(F)(F)F)c1)N1CC[C@H](N2CCN(C3CCCN(C(CO)c4ccoc4)C3)CC2)C[C@H]1Cc1ccccc1 (stereo partly drawn) [Compound 79] | – | – | – |
